Tests used:
glioblastoma = settings: intracranial pump; WANG et al. 2018; cited from earlier work
[1] = test system: A549 highly metastatic human lung tumor; settings: Paclitaxel 25 μM

SMILES | increase in survival (glioblastoma) [%] | % of embryo death [1] | Tumor weight [1] [mg] | reduction of brain metastases amount compared to controls [1] [%]
CC(C)C[C@H](NC(=O)[C@H](Cc1ccccc1)NC(=O)c1cnccn1)B(O)O [Bortezomib] | 40 | – | – | –
CC(=O)O[C@H]1C(=O)[C@@]2(C)[C@H]([C@H](OC(=O)c3ccccc3)[C@]3(O)C[C@H](OC(=O)[C@H](O)[C@@H](NC(=O)c4ccccc4)c4ccccc4)C(C)=C1C3(C)C)[C@]1(OC(C)=O)CO[C@@H]1C[C@@H]2O [Paclitaxel, paclitaxel] | – | 24%, N = 21 | 20.558 ± 1.902 | 61

Source: patent US20200147037A1, “NEW TREATMENT OF BRAIN CANCER” (priority 2017, published 2020)
